Data on four compounds can be found in PMC10656490, “Sequence-based prediction of the intrinsic solubility of peptides containing non-natural amino acids” (Nature Communications, 2023).

Where a SMILES comes first, the peptide text is derived from it. [ ]: non-standard residue; d: D form. Cha = N[C@@H](CC1CCCCC1)C(=O)O; Nle = CCCC[C@H](N)C(=O)O

A short description of series [1]: Ammonium sulphate (AMS) precipitation relative solubility assay (18 A variants). Format: physicochemical. Conditions: for solubility of 18 A variants (in words): pH 7. As for the experimental part:
Relative solubility was measured using a recently developed PEG precipitation assay. For all PYY variants the standard assay worked well, and no changes had to be implemented (Fig. 2a). […] Moreover, to ensure that the results stemming from the AMS assay are consistent and reliable, we performed the 18 A experiments twice independently on different days. The results confirmed that they are indeed replicable, and we were therefore confident to use them for the validation of our approach (Supplementary Fig. 3). […] Even at final concentrations of 0.33 mg/mL (instead of 1 mg/mL) most variants remained insoluble. We used ultracentrifugation to determine the relative solubilities of the GLP-1 variants (Table 3). To confirm the reliability of this method we replicated the results on a different day with the same stock solutions (Supplementary Fig. 4).
Aliquots of 1 mg were prepared from the purified and lyophilised stocks. […] Briefly, a precipitant is titrated in increasing concentration to a fixed concentration of protein to induce precipitation of the protein. The samples are incubated for 48 h at 4° after mixing. The samples are centrifuged and the remaining protein concentration is measured in the supernatant using a plate reader. PYY and 18 A variants were dissolved in 10 mM citrate 10 mM phosphate buffer at pH 7 for a final concentration of 3 mg/mL. The assay was run with 50% 6000 PEG for PYY and with 3.8 M AMS for 18 A. To improve throughput, a multichannel robot was employed to measure several peptides at once with the workflow being kept the same as described previously. […] 120 µL of each sample were centrifuged using an OptimaTLX Ultracentrifuge and spinning for 30 min at 500,000 g at 4 °C. The supernatant was removed, and the peptide concentration was measured using a NanoDrop.

For series [2] the following is noted: cited from earlier work.

Regarding `CC(=O)N[C@@H](CC(=O)O)C(=O)N[C@@H](Cc1c[nH]c2ccccc12)C(=O)N[C@@H](CC1CCCCC1)C(=O)N[C@@H](CCCCN)C(=O)N[C@@H](C)C(=O)N[C@@H](Cc1ccccc1)C(=O)N[C@@H](Cc1ccc(O)cc1)C(=O)N[C@@H](CC(=O)O)C(=O)N[C@@H](CCCCN)C(=O)N[C@H](C(=O)N[C@@H](CC1CCCCC1)C(=O)N[C@@H](CCC(=O)O)C(=O)N[C@@H](CCCCN)C(=O)N[C@@H](Cc1ccccc1)C(=O)N[C@@H](CCCCN)C(=O)N[C@@H](CCC(=O)O)C(=O)N[C@@H](C)C(=O)N[C@@H](Cc1ccccc1)C(N)=O)C(C)C` [Compound 17, [ntDAC]W[CHA]KAFYDKV[CHA]EKFKEA[ctFAD]] (Ac-DW[Cha]KAFYDKV[Cha]EKFKEAF-NH2), the “solubility of 18 A variants (in words)” value in series [1] is “completely insoluble”.

With `CCCC[C@H](NC(=O)[C@H](CCC(=O)O)NC(=O)[C@H](CCCCN)NC(=O)[C@H](Cc1ccccc1)NC(=O)[C@H](CCCCN)NC(=O)[C@H](CCC(=O)O)NC(=O)[C@H](C)NC(=O)[C@@H](NC(=O)[C@H](CCCCN)NC(=O)[C@H](CC(=O)O)NC(=O)[C@H](Cc1ccc(O)cc1)NC(=O)[C@H](Cc1ccccc1)NC(=O)[C@H](CC1CCCCC1)NC(=O)[C@H](CCCCN)NC(=O)[C@H](Cc1ccccc1)NC(=O)[C@H](Cc1c[nH]c2ccccc12)NC(=O)[C@H](CC(=O)O)NC(C)=O)C(C)C)C(=O)N[C@@H](Cc1ccccc1)C(N)=O` [Compound 18] (Ac-DWFK[Cha]FYDKVAEKFKE[Nle]F-NH2), the “solubility of 18 A variants (in words)” value in series [1] is given as “completely insoluble”. `CCCC[C@H](NC(=O)[C@H](CCCCN)NC(=O)[C@H](CCC(=O)O)NC(=O)[C@H](C)NC(=O)[C@@H](NC(=O)[C@H](CCCCN)NC(=O)[C@H](CC(=O)O)NC(=O)[C@H](Cc1ccc(O)cc1)NC(=O)[C@H](Cc1ccccc1)NC(=O)[C@H](C)NC(=O)[C@H](CCCCN)NC(=O)[C@H](CCCCNC(C)=O)NC(=O)[C@H](Cc1c[nH]c2ccccc12)NC(=O)[C@H](CC(=O)O)NC(C)=O)C(C)C)C(=O)N[C@@H](CCCCN)C(=O)N[C@@H](CCC(=O)O)C(=O)N[C@@H](C)C(=O)N[C@@H](Cc1ccccc1)C(N)=O` [Nac, Nle] (Ac-DWK(Ac)KAFYDKVAEK[Nle]KEAF-NH2): the PEG1/2 in series [1] (18A variants, Figure 3b) is 2.52. In series [1] (18A variants, precipitation midpoint, second run, Figure S3), the “Second Run” value is recorded as 1.409. As to “PYY: gut hormone with a length of 36 amino acids”, the half-life entry in series [2] is on record as “approximately 10 minutes”.
